# Reference: publication PMC2559975 (Journal of medicinal chemistry, 2008)
# pIC50, pKi: −log10 of the molar value. Read-outs that look alike come from different tables or passages of the source.
# Experiments:
# [1] = tested on: CCRF-CEM human leukemia cell line; experiment: In vitro cytotoxic activity; type: cell-based; details: for Times less potent than 2 in the CCRF-CEM assay: relative to 2
# CCRF-CEM/FPGS^- = type: cell-based, human; details: relative to CCRF-CEM
# [2] = tested on: CCRF-CEM human leukemia cell line; details: read-out: IC50, CCRF-CEM; equi-mixture of C10-diastereomers; cited from earlier work
# rhGAR Tfase = target: T1, rhGAR Tfase (Homo sapiens, UniProt P22102); experiment: GAR Tfase enzyme inhibition assay; type: biochemical
# T1 sequence (P22102 808-1010 limits assumed): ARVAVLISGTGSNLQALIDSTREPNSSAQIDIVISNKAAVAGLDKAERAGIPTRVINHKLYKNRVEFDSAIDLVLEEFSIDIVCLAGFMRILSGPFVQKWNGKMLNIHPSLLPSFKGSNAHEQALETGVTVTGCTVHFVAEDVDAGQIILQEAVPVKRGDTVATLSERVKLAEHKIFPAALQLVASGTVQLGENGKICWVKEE
# [3] = Homo sapiens, CCRF-CEM, read-out: IC50 [(-)T, (-)H] CCRF-CEM
compound,measurement,setting,value
10-hydroxy-DDACTHF [Compound 10R-7],pIC50,"[1]; read-out: CCRF-CEM IC50, (+) T, (-) H, Table 2, thymidine added, no hypoxanthine",5.24
same,pIC50,"[1]; read-out: CCRF-CEM IC50, (-) T, (+) H, Table 2, hypoxanthine added, no thymidine",< 5.00
"Nc1nc(N)c(CCCC(C(=O)C(F)(F)F)c2ccc(C(=O)N[C@@H](CCC(=O)O)C(=O)O)cc2)c(=O)[nH]1 (some centres unmarked) [Compound 2, 10-CF3CO-DDACTHF, reference compound]",pIC50,[1]; [3],7.22
"CSC(CCCc1c(N)nc(N)[nH]c1=O)c1ccc(C(=O)N[C@@H](CCC(=O)O)C(=O)O)cc1 (some centres unmarked) [Compound 3, 10-methylthio-DDACTHF]",Loss of activity against the cell line that lacks FPGS,CCRF-CEM/FPGS^-,ca. 100 fold
same,pIC50,[2],7.00
"Nc1nc(N)c(CCCC2(c3ccc(C(=O)N[C@@H](CCC(=O)O)C(=O)O)cc3)SCCCS2)c(=O)[nH]1 [Compound 9, (S)-2-(4-(2-(3-(2,4-Diamino-6-oxo-1,6-dihydropyrimidin-5-yl)propyl)-1,3-dithian-2-yl)benzamido)pentanedioic Acid]",Activity in the CCRF-CEM cell-based assay (in words),[1],no activity
"CS[C@H](CCCc1c(N)nc(N)[nH]c1=O)c1ccc(C(=O)N[C@@H](CCC(=O)O)C(=O)O)cc1 [Compound 10R-3, (S)-2-(4-((R)-4-(2,4-Diamino-6-oxo-1,6-dihydropyrimidin-5-yl)-1-(methylthio)butyl)benzamido)pentanedioic Acid]",pIC50,[1]; [3],7.05
same,Times less potent than 2 in the CCRF-CEM assay,[1],3-5 times
"CS[C@@H](CCCc1c(N)nc(N)[nH]c1=O)c1ccc(C(=O)N[C@@H](CCC(=O)O)C(=O)O)cc1 [Compound 10S-3, 10-methylthio-DDACTHF]",Times less potent than 2 in the CCRF-CEM assay,[1],3-5 times
"Nc1nc(N)c(CCC[C@H](O)c2ccc(C(=O)N[C@@H](CCC(=O)O)C(=O)O)cc2)c(=O)[nH]1 [Compound 10S-7, (S)-2-(4-((S)-4-(2,4-Diamino-6-oxo-1,6-dihydropyrimidin-5-yl)-1-hydroxybutyl)benzamido)pentanedioic Acid]",pKi,rhGAR Tfase,5.92
"CO[C@@H](CCCc1c(N)nc(N)[nH]c1=O)c1ccc(C(=O)N[C@@H](CCC(=O)O)C(=O)O)cc1 [Compound 10S-8, (S)-2-(4-((S)-4-(2,4-Diamino-6-oxo-1,6-dihydropyrimidin-5-yl)-1-methoxybutyl)benzamido)pentanedioic Acid]",pIC50,[1]; [3],6.10
